One experiment has as its target PI3 Kinase γ (Homo sapiens, UniProt P48736). In words: Fluorescence polarization assay for PI3K (PI3 Kinase γ). Type of experiment: biochemical. The note with it: diC8-PI(4,5)P2 substrate, 25 μM ATP, one hour at 25° C.
Another experiment addresses PI3 Kinase α (Homo sapiens, UniProt P42336). The experiment in a line: Fluorescence polarization assay for PI3K (PI3 Kinase α). The note with it: diC8-PI(4,5)P2 substrate, 25 μM ATP, one hour at 25° C. The experiment is classed as biochemical. (In general: Fluorescence polarisation rises when a labelled molecule tumbles more slowly, as on binding a larger partner.)

Structures are written as SMILES.

As a reminder, the IC50 is the concentration at which inhibition is half-maximal. A high value points to weaker potency.

Chain of PI3 Kinase γ (P48736 whole entry): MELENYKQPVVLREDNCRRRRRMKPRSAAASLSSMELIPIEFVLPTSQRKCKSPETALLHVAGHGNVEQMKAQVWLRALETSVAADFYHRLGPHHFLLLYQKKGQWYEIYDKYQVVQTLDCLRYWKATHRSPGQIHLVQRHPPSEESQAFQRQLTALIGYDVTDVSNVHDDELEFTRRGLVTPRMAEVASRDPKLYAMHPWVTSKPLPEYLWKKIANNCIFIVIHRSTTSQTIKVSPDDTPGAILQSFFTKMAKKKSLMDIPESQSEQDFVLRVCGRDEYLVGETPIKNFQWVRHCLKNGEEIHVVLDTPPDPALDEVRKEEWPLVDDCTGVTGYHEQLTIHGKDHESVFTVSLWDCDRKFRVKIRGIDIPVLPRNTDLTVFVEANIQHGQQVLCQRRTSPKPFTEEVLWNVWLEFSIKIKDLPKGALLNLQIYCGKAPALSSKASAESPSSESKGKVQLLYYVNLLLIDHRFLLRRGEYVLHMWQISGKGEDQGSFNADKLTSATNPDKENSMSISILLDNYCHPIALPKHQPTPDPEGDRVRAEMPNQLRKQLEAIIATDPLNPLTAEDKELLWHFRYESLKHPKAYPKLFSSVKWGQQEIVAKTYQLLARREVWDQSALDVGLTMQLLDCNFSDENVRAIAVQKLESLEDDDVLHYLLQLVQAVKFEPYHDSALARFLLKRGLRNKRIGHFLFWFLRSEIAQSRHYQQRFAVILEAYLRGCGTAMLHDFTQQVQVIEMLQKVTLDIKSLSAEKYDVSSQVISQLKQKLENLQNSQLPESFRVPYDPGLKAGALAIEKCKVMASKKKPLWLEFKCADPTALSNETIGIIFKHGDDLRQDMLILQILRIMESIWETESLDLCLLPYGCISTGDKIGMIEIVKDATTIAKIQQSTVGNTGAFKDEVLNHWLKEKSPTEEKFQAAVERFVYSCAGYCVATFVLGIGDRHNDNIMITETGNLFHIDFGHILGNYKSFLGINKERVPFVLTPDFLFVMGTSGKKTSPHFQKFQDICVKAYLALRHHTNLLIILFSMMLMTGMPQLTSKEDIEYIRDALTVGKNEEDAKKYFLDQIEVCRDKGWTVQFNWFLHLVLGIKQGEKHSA
Chain of PI3 Kinase α (P42336 whole entry): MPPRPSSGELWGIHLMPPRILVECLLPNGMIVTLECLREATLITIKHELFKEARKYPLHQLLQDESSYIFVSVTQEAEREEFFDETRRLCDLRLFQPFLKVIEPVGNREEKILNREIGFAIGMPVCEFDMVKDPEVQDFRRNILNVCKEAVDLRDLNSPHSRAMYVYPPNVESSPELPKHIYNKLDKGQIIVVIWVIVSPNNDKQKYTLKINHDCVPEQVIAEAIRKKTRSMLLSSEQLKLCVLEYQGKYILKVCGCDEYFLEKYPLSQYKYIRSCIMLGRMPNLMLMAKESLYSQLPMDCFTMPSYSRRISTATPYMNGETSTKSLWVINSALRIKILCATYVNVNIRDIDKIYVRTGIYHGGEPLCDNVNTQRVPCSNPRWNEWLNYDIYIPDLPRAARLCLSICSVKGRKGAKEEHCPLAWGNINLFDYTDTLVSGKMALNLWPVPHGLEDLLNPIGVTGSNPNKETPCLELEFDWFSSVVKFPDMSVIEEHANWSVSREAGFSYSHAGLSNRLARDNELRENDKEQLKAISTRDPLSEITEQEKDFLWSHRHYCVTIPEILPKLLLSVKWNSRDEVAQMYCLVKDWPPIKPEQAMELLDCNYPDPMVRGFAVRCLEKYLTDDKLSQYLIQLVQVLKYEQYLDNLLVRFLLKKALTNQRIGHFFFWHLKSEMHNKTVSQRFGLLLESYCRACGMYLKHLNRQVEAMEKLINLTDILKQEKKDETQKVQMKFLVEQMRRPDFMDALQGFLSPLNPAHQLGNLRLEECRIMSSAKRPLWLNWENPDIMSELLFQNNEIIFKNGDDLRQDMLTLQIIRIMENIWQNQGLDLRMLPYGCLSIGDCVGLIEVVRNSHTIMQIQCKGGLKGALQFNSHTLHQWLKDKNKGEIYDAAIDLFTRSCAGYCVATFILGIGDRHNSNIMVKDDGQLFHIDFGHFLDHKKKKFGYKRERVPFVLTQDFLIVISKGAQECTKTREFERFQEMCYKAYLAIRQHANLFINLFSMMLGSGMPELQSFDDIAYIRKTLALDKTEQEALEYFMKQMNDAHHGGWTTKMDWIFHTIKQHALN
Chain of PI3 Kinase α (P27986 whole entry partner): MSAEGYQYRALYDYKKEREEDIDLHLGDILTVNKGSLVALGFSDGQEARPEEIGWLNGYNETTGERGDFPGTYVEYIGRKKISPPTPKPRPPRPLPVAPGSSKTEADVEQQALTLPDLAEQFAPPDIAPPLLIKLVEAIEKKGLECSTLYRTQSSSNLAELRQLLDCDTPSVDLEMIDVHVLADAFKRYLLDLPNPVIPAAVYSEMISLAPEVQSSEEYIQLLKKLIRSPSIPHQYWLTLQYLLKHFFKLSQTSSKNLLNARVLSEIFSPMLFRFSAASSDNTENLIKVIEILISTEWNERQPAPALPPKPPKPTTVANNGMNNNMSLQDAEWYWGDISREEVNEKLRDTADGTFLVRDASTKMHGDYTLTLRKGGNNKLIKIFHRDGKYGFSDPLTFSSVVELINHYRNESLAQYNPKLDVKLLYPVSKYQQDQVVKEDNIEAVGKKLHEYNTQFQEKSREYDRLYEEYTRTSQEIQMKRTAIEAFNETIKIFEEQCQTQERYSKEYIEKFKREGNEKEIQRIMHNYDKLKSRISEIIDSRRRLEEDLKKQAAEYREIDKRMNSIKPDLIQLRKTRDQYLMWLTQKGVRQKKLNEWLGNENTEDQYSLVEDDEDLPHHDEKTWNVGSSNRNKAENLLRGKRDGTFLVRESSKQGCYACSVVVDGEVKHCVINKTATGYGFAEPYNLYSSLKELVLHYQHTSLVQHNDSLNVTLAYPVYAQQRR

In the case of `COc1ccc(NC(=O)Nc2ccc(-c3nc(N4CCOCC4)c4nnn(CCO)c4n3)cc2)cc1` [Example 185, 1-{4-[3-(2-hydroxyethyl)-7-morpholin-4-yl-3H-[1,2,3]triazolo[4,5-d]pyrimidin-5-yl]phenyl}-3-(4-methoxyphenyl)urea], the IC50 was 44.7 nM against PI3 Kinase γ and 14 nM on PI3 Kinase α.

Turning to `O=C(Nc1ccccc1)Nc1ccc(-c2nc(N3CCOCC3)c3nnn(CCO)c3n2)cc1` [Example 186, 1-{4-[3-(2-hydroxyethyl)-7-morpholin-4-yl-3H-[1,2,3]triazolo[4,5-d]pyrimidin-5-yl]phenyl}-3-phenylurea], the IC50 was found to be 22 nM on PI3 Kinase γ and 4.7 nM at PI3 Kinase α.

For `CC(C)(C)OC(=O)N1CC(Cn2nnc3c(N4CCOCC4)nc(-c4ccc(N)cc4)nc32)C1` [Example 187, tert-Butyl 3-{[5-(4-aminophenyl)-7-morpholin-4-yl-3H-[1,2,3]triazolo[4,5-d]pyrimidin-3-yl]methyl}azetidine-1-carboxylate], the IC50 is 12000 nM against PI3 Kinase γ and 2080 nM against PI3 Kinase α.

Take `CC(C)(C)OC(=O)N1CC(Cn2nnc3c(N4CCOCC4)nc(-c4ccc(NC(=O)Nc5ccccc5)cc4)nc32)C1` [Example 188, tert-butyl 3-[(7-morpholin-4-yl-5-{4-[(phenylcarbamoyl)amino]phenyl}-3H-[1,2,3]triazolo[4,5-d]pyrimidin-3-yl)methyl]azetidine-1-carboxylate]: the IC50 against PI3 Kinase γ was determined as 518 nM; against PI3 Kinase α it was 19.5 nM.

As to `O=C(Nc1ccccc1)Nc1ccc(-c2nc(N3CCOCC3)c3nnn(CC4CNC4)c3n2)cc1` [Example 189, 1-{4-[3-(azetidin-3-ylmethyl)-7-morpholin-4-yl-3H-[1,2,3]triazolo[4,5-d]pyrimidin-5-yl]phenyl}-3-phenylurea], the results for the IC50 at PI3 Kinase γ and at PI3 Kinase α were 28 nM and 8 nM, respectively.

As for `O=C(Nc1ccccc1)Nc1ccc(-c2nc(N3CCOCC3)c3nnn(CC4CN(C(=O)c5ccccc5)C4)c3n2)cc1` [Example 190, 1-(4-{3-[(1-benzoylazetidin-3-yl)methyl]-7-morpholin-4-yl-3H-[1,2,3]triazolo[4,5-d]pyrimidin-5-yl}phenyl)-3-phenylurea], the IC50 turned out to be 346 nM against PI3 Kinase γ and 19 nM on PI3 Kinase α.

For `O=C(Nc1ccccc1)Nc1ccc(-c2nc(N3CCOCC3)c3nnn(CC4CN(Cc5ccccc5)C4)c3n2)cc1` [Example 191, 1-(4-{3-[(1-benzylazetidin-3-yl)methyl]-7-morpholin-4-yl-3H-[1,2,3]triazolo[4,5-d]pyrimidin-5-yl}phenyl)-3-phenylurea], the IC50 against PI3 Kinase γ came out at 329 nM; at PI3 Kinase α, 91 nM.

On to `O=C(Nc1ccccc1)Nc1ccc(-c2nc(N3CCOCC3)c3nnn(CC4CN(Cc5ccc(F)cc5)C4)c3n2)cc1` [Example 192, 1-[4-(3-{[1-(4-fluorobenzyl)azetidin-3-yl]methyl}-7-morpholin-4-yl-3H-[1,2,3]triazolo[4,5-d]pyrimidin-5-yl)phenyl]-3-phenylurea], for which the IC50 at PI3 Kinase γ was found to be 549 nM; at PI3 Kinase α, 148 nM.

For the molecule `O=C(Nc1ccccc1)Nc1ccc(-c2nc(N3CCOCC3)c3nnn(CC4CN(Cc5ccc(-c6ccncc6)cc5)C4)c3n2)cc1` [Example 193, 1-[4-(7-Morpholin-4-yl-3-{[1-(4-pyridin-4-ylbenzyl)azetidin-3-yl]methyl}-3H-[1,2,3]triazolo[4,5-d]pyrimidin-5-yl)phenyl]-3-phenylurea], the values for the IC50 at PI3 Kinase γ and against PI3 Kinase α were 408 nM and 68 nM, respectively.

Take `CN(C)CCCOc1ccc(CN2CC(Cn3nnc4c(N5CCOCC5)nc(-c5ccc(NC(=O)Nc6ccccc6)cc5)nc43)C2)cc1` [Example 194, 1-(4-{3-[(1-{4-[3-(Dimethylamino)propoxy]benzyl}azetidin-3-yl)methyl]-7-morpholin-4-yl-3H-[1,2,3]triazolo[4,5-d]pyrimidin-5-yl}phenyl)-3-phenylurea]: the IC50 against PI3 Kinase γ was found to be 210 nM; against PI3 Kinase α it was 31 nM.

As for `Oc1cccc(-c2nc(N3CCOCC3)c3nnn(CCN4CCCCC4)c3n2)c1` [Example 195, 3-[7-Morpholin-4-yl-3-(2-piperidin-1-ylethyl)-3H-[1,2,3]triazolo[4,5-d]pyrimidin-5-yl]phenol], the IC50 at PI3 Kinase γ is 5210 nM; on PI3 Kinase α it was 689 nM.

As for `Oc1cccc(-c2nc(N3CCOCC3)c3nnn(CCc4ccccn4)c3n2)c1` [Example 196, 3-[7-Morpholin-4-yl-3-(2-pyridin-2-yl-ethyl)-3H-[1,2,3]triazolo[4,5-d]pyrimidin-5-yl]-phenol], the IC50 against PI3 Kinase γ is 1060 nM; against PI3 Kinase α, 75.5 nM.

As to `O=C(Nc1ccc(Cn2nnc3c(N4CCOCC4)nc(-c4cccc(O)c4)nc32)cc1)c1ccc(Cl)cc1` [Example 197, 4-Chloro-N-(4-{[5-(3-hydroxyphenyl)-7-morpholin-4-yl-3H-[1,2,3]triazolo[4,5-d]pyrimidin-3-yl]methyl}phenyl)benzamide], the IC50 at PI3 Kinase γ was 220 nM; against PI3 Kinase α it was 66 nM.

On to `O=C(Nc1ccncc1)Nc1ccc(-c2nc(N3CCOCC3)c3nnn(C4CCOCC4)c3n2)cc1` [Example 198, 1-{4-[7-morpholin-4-yl-3-(tetrahydro-2H-pyran-4-yl)-3H-[1,2,3]triazolo[4,5-d]pyrimidin-5-yl]phenyl}-3-pyridin-4-ylurea], for which the figures for the IC50 against PI3 Kinase γ and against PI3 Kinase α were 43 nM and 10 nM, respectively.

Take `Cn1nnc2c(N3CCOCC3)nc(-c3ccc(NC(=O)Nc4cccnc4)cc3)nc21` [Example 199, 1-[4-(3-methyl-7-morpholin-4-yl-3H-[1,2,3]triazolo[4,5-d]pyrimidin-5-yl)phenyl]-3-pyridin-3-ylurea]: the half-maximal inhibitory concentration (IC50) against PI3 Kinase γ amounted to 49 nM; at PI3 Kinase α, 10.5 nM.

In the case of `Cn1nnc2c(N3CCOCC3)nc(-c3ccc(NC(=O)Nc4cccs4)cc3)nc21` [Example 200, 1-[4-(3-methyl-7-morpholin-4-yl-3H-[1,2,3]triazolo[4,5-d]pyrimidin-5-yl)phenyl]-3-(2-thienyl)urea], the IC50 at PI3 Kinase γ amounted to 22 nM; on PI3 Kinase α it was 6.5 nM.

For `CN(C)CCCCn1nnc2c(N3CCOCC3)nc(-c3cccc(O)c3)nc21` [Example 202, 3-{3-[4-(dimethylamino)butyl]-7-morpholin-4-yl-3H-[1,2,3]triazolo[4,5-d]pyrimidin-5-yl}phenol], the figures for the IC50 against PI3 Kinase γ and against PI3 Kinase α were 780 nM and 224 nM, respectively.

Take `CNCCCCn1nnc2c(N3CCOCC3)nc(-c3cccc(O)c3)nc21` [Example 203, 3-{3-[4-(Methylamino)butyl]-7-morpholin-4-yl-3H-[1,2,3]triazolo[4,5-d]pyrimidin-5-yl}phenol]: the figures for the IC50 on PI3 Kinase γ and at PI3 Kinase α were 618 nM and 100 nM, respectively.

Regarding `NCCCCn1nnc2c(N3CCOCC3)nc(-c3cccc(O)c3)nc21` [Example 204, 3-[3-(4-Aminobutyl)-7-morpholin-4-yl-3H-[1,2,3]triazolo[4,5-d]pyrimidin-5-yl]phenol], the half-maximal inhibitory concentration (IC50) worked out at 108 nM against PI3 Kinase γ and 132 nM on PI3 Kinase α.

Take `Oc1cccc(-c2nc(N3CCOCC3)c3nnn(CCCCN4CCCC4)c3n2)c1` [Example 205, 3-[7-Morpholin-4-yl-3-(4-pyrrolidin-1-ylbutyl)-3H-[1,2,3]triazolo[4,5-d]pyrimidin-5-yl]phenol]: the IC50 on PI3 Kinase γ is 1210 nM; at PI3 Kinase α, 332 nM.

`CNC(=O)c1ccc(Cn2nnc3c(N4CCOCC4)nc(-c4cccc(O)c4)nc32)cc1` [Example 207, 4-{[5-(3-hydroxyphenyl)-7-morpholin-4-yl-3H-[1,2,3]triazolo[4,5-d]pyrimidin-3-yl]methyl}-N-methylbenzamide]: the IC50 turned out to be 2640 nM against PI3 Kinase γ and 342 nM against PI3 Kinase α.

As for `CC(C)(C)OC(=O)N1CCC(NC(=O)c2ccc(Cn3nnc4c(N5CCOCC5)nc(-c5cccc(O)c5)nc43)cc2)CC1` [Example 208, tert-butyl 4-[(4-{[5-(3-hydroxyphenyl)-7-morpholin-4-yl-3H-[1,2,3]triazolo[4,5-d]pyrimidin-3-yl]methyl}benzoyl)amino]piperidine-1-carboxylate], the IC50 came to 1360 nM on PI3 Kinase γ and 122 nM at PI3 Kinase α.

With `CC(C)(C)OC(=O)NC1CCN(C(=O)c2ccc(Cn3nnc4c(N5CCOCC5)nc(-c5cccc(O)c5)nc43)cc2)CC1` [Example 209, tert-butyl [1-(4-{[5-(3-hydroxyphenyl)-7-morpholin-4-yl-3H-[1,2,3]triazolo[4,5-d]pyrimidin-3-yl]methyl}benzoyl)piperidin-4-yl]carbamate], the IC50 on PI3 Kinase γ amounted to 1670 nM; on PI3 Kinase α, 447 nM.

For `CC(=O)NCCNC(=O)c1ccc(Cn2nnc3c(N4CCOCC4)nc(-c4cccc(O)c4)nc32)cc1` [Example 210, N-(2-acetamidoethyl)-4-{[5-(3-hydroxyphenyl)-7-morpholin-4-yl-3H-[1,2,3]triazolo[4,5-d]pyrimidin-3-yl]methyl}benzamide], the IC50 on PI3 Kinase γ is 782 nM; on PI3 Kinase α it was 692 nM.

Consider `O=C(NCCCN1CCCC1)c1ccc(Cn2nnc3c(N4CCOCC4)nc(-c4cccc(O)c4)nc32)cc1` [Example 211, 4-{[5-(3-hydroxyphenyl)-7-morpholin-4-yl-3H-[1,2,3]triazolo[4,5-d]pyrimidin-3-yl]methyl}-N-(3-pyrrolidin-1-ylpropyl)benzamide], for which the figures for the IC50 at PI3 Kinase γ and against PI3 Kinase α were 2730 nM and 289 nM, respectively.

Turning to `O=C(NCc1ccccc1)c1ccc(Cn2nnc3c(N4CCOCC4)nc(-c4cccc(O)c4)nc32)cc1` [Example 212, N-benzyl-4-{[5-(3-hydroxyphenyl)-7-morpholin-4-yl-3H-[1,2,3]triazolo[4,5-d]pyrimidin-3-yl]methyl}benzamide], the IC50 came out at 766 nM against PI3 Kinase γ and 78 nM against PI3 Kinase α.

Consider `O=C(NCCN1CCCC1)c1ccc(Cn2nnc3c(N4CCOCC4)nc(-c4cccc(O)c4)nc32)cc1` [Example 213, 4-{[5-(3-hydroxyphenyl)-7-morpholin-4-yl-3H-[1,2,3]triazolo[4,5-d]pyrimidin-3-yl]methyl}-N-(2-pyrrolidin-1-ylethyl)benzamide], for which the IC50 at PI3 Kinase γ is 1380 nM; on PI3 Kinase α, 282 nM.

With `CN(C)CCNC(=O)c1ccc(Cn2nnc3c(N4CCOCC4)nc(-c4cccc(O)c4)nc32)cc1` [Example 214, N-[2-(dimethylamino)ethyl]-4-{[5-(3-hydroxyphenyl)-7-morpholin-4-yl-3H-[1,2,3]triazolo[4,5-d]pyrimidin-3-yl]methyl}benzamide], the IC50 turned out to be 1540 nM against PI3 Kinase γ and 386 nM at PI3 Kinase α.
